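These data come from cells grown in 96-well plates and exposed to compound for 48 hours at five concentrations. At the GI50, growth is halved.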 Activity calls are given as the source filed them. No stated cut-off is given here; in the data, active = GI50 up to about 1.1 µM and inactive = higher.
Tests used:
Assay in all cases: NCI tumour cell line growth inhibition, 48 h
[1] = system: CCRF-CEM
[2] = system: RXF 393
[3] = system: K562
[4] = system: HOP-92
[5] = system: KM12
[6] = system: SF-268
[7] = system: HL-60
[8] = system: OVCAR-4
[9] = system: NCI-H226
[10] = system: LXFL 529
[11] = system: SN12C
[12] = system: HOP-18
[13] = system: NCI-H522
[14] = system: IGROV-1
[15] = system: HCC 2998
[16] = system: RPMI-8226
[17] = system: U-251
[18] = system: DLD-1
[19] = system: SF-295
[20] = system: HCT-116
[21] = system: EKVX
[22] = system: 786-0
[23] = system: SK-MEL-28
[24] = system: SK-MEL-2
[25] = system: NCI-H460
[26] = system: SW-620
[27] = system: SF-539
[28] = system: NCI-H23
[29] = system: KM-20L2
[30] = system: OVCAR-3
[31] = system: SK-OV-3
[32] = system: UACC-62
[33] = system: UO-31
[34] = system: UACC-257
[35] = system: SNB-78
[36] = system: M14
[37] = system: HT-29
[38] = system: A549
[39] = system: SK-MEL-5
[40] = system: SR
[41] = system: SNB-19
[42] = system: OVCAR-8
[43] = system: DMS-273
[44] = system: ACHN
[45] = system: Malme-3M
[46] = system: HOP-62
[47] = system: SNB-75
[48] = system: HCT-15
[49] = system: M19-MEL
[50] = system: A498
[51] = system: XF498
[52] = system: LOX IMVI
[53] = system: OVCAR-5
[54] = system: CAKI-1
[55] = system: COLO 205
[56] = system: MOLT-4

## CCOc1ccc2[nH]c3c(C)c4cc[n+](C)cc4c(C)c3c2c1
[1]
  GI50: 2.88 µM (inactive)
[2]
  GI50: 8.71 µM (inactive)
[3]
  GI50: 2.1 µM (inactive)
[4]
  GI50: 2.5 µM (inactive)
[5]
  GI50: 2.4 µM (inactive)
[6]
  GI50: 0.271 µM (active)
[7]
  GI50: 7.85 µM (inactive)
[8]
  GI50: 3.61 µM (inactive)
[9]
  GI50: 0.451 µM (active)
[10]
  GI50: 0.348 µM (active)
[11]
  GI50: 0.279 µM (active)
[12]
  GI50: 4.03 µM (inactive)
[13]
  GI50: 1.11 µM (active)
[14]
  GI50: 2.25 µM (inactive)
[15]
  GI50: 3.27 µM (inactive)
[16]
  GI50: 18.3 µM (inactive)
[17]
  GI50: 0.228 µM (active)
[18]
  GI50: 1.66 µM (inactive)
[19]
  GI50: 0.25 µM (active)
[20]
  GI50: 3 µM (inactive)
[21]
  GI50: 4.24 µM (inactive)
[22]
  GI50: 0.255 µM (active)
[23]
  GI50: 3.1 µM (inactive)
[24]
  GI50: 2.42 µM (inactive)
[25]
  GI50: 1.89 µM (inactive)
[26]
  GI50: 2.05 µM (inactive)
[27]
  GI50: 0.65 µM (active)
[28]
  GI50: 0.838 µM (active)
[29]
  GI50: 4.95 µM (inactive)
[30]
  GI50: 3.93 µM (inactive)
[31]
  GI50: 2.92 µM (inactive)
[32]
  GI50: 2.77 µM (inactive)
[33]
  GI50: 20.9 µM (inactive)
[34]
  GI50: 4.25 µM (inactive)
[35]
  GI50: 0.662 µM (active)
[36]
  GI50: 8.41 µM (inactive)
[37]
  GI50: 3.99 µM (inactive)
[38]
  GI50: 1.95 µM (inactive)
[39]
  GI50: 1.55 µM (inactive)

## CC[S+](C)c1ccc(-c2c3nc(c(-c4ccc([S+](C)CC)cc4)c4ccc([nH]4)c(-c4ccc([S+](C)CC)cc4)c4nc(c(-c5ccc([S+](C)CC)cc5)c5ccc2[nH]5)C=C4)C=C3)cc1.[O-][Cl+3]([O-])([O-])[O-].[O-][Cl+3]([O-])([O-])[O-].[O-][Cl+3]([O-])([O-])[O-].[O-][Cl+3]([O-])([O-])[O-] (centres undefined)
[1]
  GI50: 18.9 µM (inactive)
[40]
  GI50: 18.5 µM (inactive)
[2]
  GI50: 13.6 µM (inactive)
[3]
  GI50: 13.9 µM (inactive)
[4]
  GI50: 0.649 µM (active)
[5]
  GI50: 20.3 µM (inactive)
[6]
  GI50: 21.8 µM (inactive)
[7]
  GI50: 6.41 µM (inactive)
[41]
  GI50: 93.8 µM (inactive)
[8]
  GI50: > 100 µM (inactive)
[10]
  GI50: 10.1 µM (inactive)
[42]
  GI50: 22.9 µM (inactive)
[11]
  GI50: 16.8 µM (inactive)
[13]
  GI50: 29.6 µM (inactive)
[43]
  GI50: 34.4 µM (inactive)
[16]
  GI50: 7.78 µM (inactive)
[17]
  GI50: 16.6 µM (inactive)
[44]
  GI50: 29.6 µM (inactive)
[19]
  GI50: 28.7 µM (inactive)
[20]
  GI50: 27.9 µM (inactive)
[45]
  GI50: 4.4 µM (inactive)
[21]
  GI50: 11 µM (inactive)
[22]
  GI50: 27.7 µM (inactive)
[46]
  GI50: 30.1 µM (inactive)
[47]
  GI50: 24.3 µM (inactive)
[23]
  GI50: 18.9 µM (inactive)
[24]
  GI50: 18.2 µM (inactive)
[25]
  GI50: 22 µM (inactive)
[26]
  GI50: 28.3 µM (inactive)
[27]
  GI50: 27.4 µM (inactive)
[48]
  GI50: 19.3 µM
[28]
  GI50: 38.6 µM (inactive)
[49]
  GI50: 40.9 µM (inactive)
[29]
  GI50: 14.1 µM (inactive)
[50]
  GI50: 36.6 µM (inactive)
[30]
  GI50: 56.9 µM (inactive)
[31]
  GI50: 30.4 µM (inactive)
[32]
  GI50: 12.9 µM (inactive)
[34]
  GI50: 31 µM (inactive)
[51]
  GI50: 0.881 µM (active)
[52]
  GI50: 11.3 µM (inactive)
[35]
  GI50: 56.2 µM (inactive)
[36]
  GI50: 24.9 µM (inactive)
[37]
  GI50: 29.2 µM (inactive)
[53]
  GI50: 21.7 µM (inactive)
[54]
  GI50: 39.1 µM (inactive)
[38]
  GI50: 18.5 µM (inactive)
[39]
  GI50: 24.7 µM (inactive)
[55]
  GI50: 35.9 µM (inactive)
[56]
  GI50: 20 µM (inactive)

Source: ChEMBL document CHEMBL1201862, “PubChem BioAssay data set” (2004)
